Values joined by “and” are separate entries in the source; they are usually repeats but may differ in a detail not shown here. Equal values may be shown once.
Tested on: MV4-11-Red.Fluc
Assay: Systemic MV4-11-Red.Fluc model (bioluminescence, total flux)
Format: in vivo, mouse
Design: bioluminescence signal, individual mouse (ear tag), 10 min post: unit: p/s
Conditions: for Total Flux minus ROI 1 (background): individual ROI (one per animal), background-subtracted; for bioluminescence signal, group Average, 10 min post / bioluminescence signal, individual mouse (ear tag), 10 min post: MV 4-11 red.fluc, A-1726694 q7dx3 IV, ABT-199 50mkd qdx21 PO
Protocol: All animal studies were conducted in accordance with the guidelines approved by the Institutional Animal Care and Use Committees of AbbVie. The research protocol was approved by In Vivo Pharmacology at AbbVie prior to study initiation but was not publicly registered or disclosed. Female C.B-17 SCID-beige mice (AMO-1, OPM-2, NCI-H929, and OCI-AML2 xenografts) and female NSG mice (MV4-11-Red.Fluc systemic) were purchased from Charles River Laboratories (Wilmington, MA). Animals were housed in a light cycle-controlled room with HEPA filtration at 22 °C. Animals had nesting and climbing cage topper as the primary environmental enrichment. Animals were inoculated subcutaneously in the right flank with 5 × 10^6 (AMO-1, OPM-2, NCI-H929, and OCI-AML2) or intravenous (IV) with 5 × 10^6 (MV4-11-Red.Fluc). The inoculation volume (0.2 mL) comprised a 50:50 mixture of cells in growth media and Matrigel (BD Biosciences) for subcutaneous injections and 100% phosphate-buffered saline for IV administration. All cell lines used in this publication were authenticated using IDEXX for STR profiling as well as their IMPACT and human IMPACT panels for pathogen screening. Electronic calipers were used to measure the length and width of each tumor 2 to 3 times per week. Tumor volume was estimated by applying the following equation: volume = length × width^2/2. All groups remained blinded during measurements and dosing; only veterinary staff were aware of group identity. When tumors reached approximately 200 mm^3, mice were randomized by match and distributed into treatment and control groups. All xenograft trials were conducted using 5 to 10 mice per group, and all mice were ear tagged and monitored individually throughout the studies. Any animal with a tumor above 2000 mm^3 or 15% loss in body weight was euthanized and removed from the study. Tumor burden in the systemic MV4-11-Red.Fluc experiment was measured using an IVIS® spectrum from PerkinElmer by taking the total photon flux of the entire dorsal side of an individual mouse. Ten minutes prior to imaging, animals received intraperitoneally 0.2 mL of a 15-mg/mL solution of D-Luciferin (PerkinElmer, Catalog #122799) formulated in 100% phosphate-buffered saline. Animals were anesthetized using 3.5% isoflurane and maintained using 2%. Six days after inoculation, animals were imaged and randomized into vehicle and treatment groups at a total flux of ~1 × 10^8. A background control mouse that was tumor naive but received D-Luciferin was placed in the upper left corner of each image. The total flux from this animal was subtracted from the total flux of each animal present in the image. […]

In the case of `CC1(C)CCC(CN2CCN(c3ccc(C(=O)NS(=O)(=O)c4ccc(NCC5CCOCC5)c([N+](=O)[O-])c4)c(Oc4cnc5[nH]ccc5c4)c3)CC2)=C(c2ccc(Cl)cc2)C1` [venetoclax], the “Total Flux minus ROI 1 (background)” value (Day 52, listed as ABT-199) is reported as 4.43E+11 p/s and 2.98E+10 p/s, the “Total Flux minus ROI 1 (background)” value (Day55) is reported as 5.08E+11 p/s and the “Total Flux” value (Day55, individual ROI (one per animal, ROI 2-10), raw value) is reported as 5.09E+11 p/s. The “bioluminescence signal, group Average, 10 min post” value (day 6) was 7.85E+07, the “bioluminescence signal, individual mouse (ear tag), 10 min post” value (“bioluminescence signal, individual mouse” below) (day 6) was 6.21E+07 and 5.74E+07 and 4.57E+07 and 1.10E+08 and 9.71E+07 and 7.20E+07 and 8.40E+07 and 9.10E+07 and the “bioluminescence signal, group Average, 10 min post” value (day 10) was 5.02E+08. For the same compound, the “bioluminescence signal, individual mouse” value (day 10) was 3.02E+08 and 5.77E+08 and 2.27E+08 and 9.68E+08 and 7.24E+08 and 4.68E+08 and 3.50E+08 and 4.61E+08, the “bioluminescence signal, group Average, 10 min post” value (day 13) was 1.09E+09 and the “bioluminescence signal, group Average, 10 min post” value (day 17) was 4.62E+09. The “bioluminescence signal, individual mouse” value (day 17) was 3.54E+09 and 4.80E+09 and 3.65E+09 and 6.19E+09 and 6.79E+09 and 2.67E+09 and 4.40E+09 and 4.67E+09, the “bioluminescence signal, group Average, 10 min post” value (day 20) was 9.05E+09 and the “bioluminescence signal, individual mouse” value (day 20) was 8.51E+09 and 1.38E+10 and 5.28E+09 and 1.23E+10 and 6.88E+09 and 6.58E+09 and 8.42E+09 and 1.02E+10. For the same compound, the “bioluminescence signal, group Average, 10 min post” value (day 24) was 1.53E+10, the “bioluminescence signal, individual mouse” value (day 24) was 9.16E+09 and 1.73E+10 and 6.56E+09 and 2.31E+10 and 2.87E+10 and 1.24E+10 and 1.46E+10 and 1.55E+10 and the “bioluminescence signal, group Average, 10 min post” value (day 27) was 2.79E+10. The “bioluminescence signal, individual mouse” value (day 27) was 2.48E+10 and 2.02E+10 and 1.49E+10 and 4.29E+10 and 4.73E+10 and 2.09E+10 and 3.23E+10 and 1.93E+10, the “bioluminescence signal, group Average, 10 min post” value (day 31) was 5.69E+10 and the “bioluminescence signal, group Average, 10 min post” value (day 34) was 1.07E+11. The “bioluminescence signal, group Average, 10 min post” value (day 38) was 1.45E+11, the “bioluminescence signal, group Average, 10 min post” value (day 41) was 3.10E+11 and the “bioluminescence signal, individual mouse” value (day 41) was 2.65E+11 and 1.55E+11 and 4.70E+11 and 2.06E+11 and 5.84E+11. For the same compound, the “bioluminescence signal, group Average, 10 min post” value (day 45) was 6.43E+11, the “bioluminescence signal, individual mouse” value (day 45) was 4.15E+11 and the “bioluminescence signal, group Average, 10 min post” value (day 48) was 2.37E+11. The “bioluminescence signal, individual mouse” value (day 48) was 4.43E+11 and the “bioluminescence signal, group Average, 10 min post” value (day 55) was 8.71E+11.

From article PMC10600239, “Selective MCL-1 inhibitor ABBV-467 is efficacious in tumor models but is associated with cardiac troponin increases in patients” (Communications Medicine, 2023)
